Results on six sequences are retold here after publication PMC8901753, “An ultrasensitive microfluidic approach reveals correlations between the physico-chemical and biological activity of experimental peptide antibiotics” (Scientific Reports, 2022).

The nature of assay [1]: Single-GUV dye (HPTS) leakage assay, membranolytic activity. Conditions: for vesicle survival rate: continuous flow, after 7 h, PBS pH 7.4, mean ± std. dev., 2 independent repeats; for mode of action from time distribution of single-GUV leakage events: 5 and 10 μM peptide. An excerpt:
Given this variability in the cellular responses to treatment, we hypothesized that cell-to-cell differences at the membrane level could underlie the observed heterogeneity in the bacterial responses to these novel peptides. We therefore used anionic giant unilamellar vesicles (GUVs) as highly controlled model membranes to study the membranolytic activity of the bienA and bienK peptides. The vesicles were produced in a microfluidic chip using octanol-assisted liposome assembly (OLA)[40] and made with a 3:1 mixture of 1,2-dioleoyl-sn-glycero-3-phosphocholine (DOPC) and 1,2-dioleoyl-sn-glycero-3- phospho-rac-(1-glycerol) sodium salt (DOPG) to mimic the anionic charge of bacterial membranes[27] (Fig. 4). We note that E. coli membranes are estimated to be ~ 20% PG, and that lipids of the inner membrane in particular contain a high proportion (over 95%) of phospholipids, similar to our phospholipid-based GUV models. The more complex E. coli outer membrane includes both phospholipids and glycolipids. […] In particular, in a direct comparison, AMP induced membrane permeabilisation was similar across GUVs and E. coli inner (cytoplasmic) membranes, albeit with some interesting dissimilarities in a few specific details. In our assay, the GUVs were formed encapsulating a membrane impermeable dye, HPTS (8-hydroxypyrene-1,3,6-trisulfonic acid) and immobilized using an array of physical traps; the peptide solution was then flowed over them using a continuous flow system.
Figure 4 Schematic of the integrated GUV production, trapping and perfusion platform. GUVs are produced using octanol-assisted liposome assembly at a 6-way junction as described elsewhere. Briefly, lipids dissolved in octanol (the “LO” phase) are brought together at the junction with inner aqueous (IA) and outer aqueous (OA) streams, leading to the production of GUVs hosting octanol droplets. The octanol droplets bud off the GUVs downstream. This mixture of GUVs and octanol droplets is distributed into an array of trapping chambers via a connector chip, which additionally facilitates the separation of the GUVs and octanol droplets (for details, please see Al Nahas et al. Lab Chip 2019[27]). The trapped vesicles contain the membrane-impermeable fluorescent dye HPTS. Post-trapping, the GUVs are subjected to a continuous flow of peptides, and the membranolytic efficacy of the peptides is determined by studying the leakage of the fluorescent dye from the interior of the GUVs via video fluorescence microscopy.
We have published detailed protocols for the design, fabrication and operation of the microfluidic device for immobilizing and testing thousands of individual GUVs, which can be found elsewhere[23],[27]. A detailed protocol for the octanol-assisted liposome assembly (OLA) technique of producing GUVs on chip is also available. Briefly, our platform facilitated three procedural steps integrated in a single device. First, the OLA[40] technique was used to prepare GUVs. Next, the GUVs were trapped downstream in arrays of hydrodynamic posts. Finally, the immobilized GUVs were perfused with the desired dose of a peptide. All lipids described in the text were purchased from Avanti Polar Lipids. The GUVs were prepared in sucrose solution (200 mM) with glycerol (15% v/v) in PBS (pH 7.4). The vesicles were formed encapsulating the fluorescent membrane-impermeable dye 8-hydroxypyrene-1,3,6-trisulfonic acid from Thermo Fisher (HPTS, 50 μM). The microfluidic platform was operated by two positive pressure-driven pump modules (MFCS-4C, Fluigent), and a single neMESYS syringe pump module for fluid manipulation. The trapped GUVs were continuously dosed with buffer solution loaded with 5 μM HPTS (as a tracer) and the peptide of interest at 5 or 10 μM concentrations (the stock peptide solutions were prepared in milliQ water as described previously). […]

The test system of assay [2] is E. coli BW25113 cells. Briefly: Mother-machine microfluidics-microscopy single-cell assay. It counts as cell-based, Escherichia coli. Conditions: for coefficient of variation (CV) in the cell lengths / Lmean 3h (mean cell length normalized to initial cell length) / cell division during peptide treatment / survival fraction (fraction of wells hosting dividing cells after peptide treatment and overnight LB) / increase in cell length on average before cell death: 10 μM peptide; for coefficient of variation (CV) in the cell lengths: 3 h time point, susceptible cells, 20 cells from 2 repeats (bienA9: 5 cells, 1 experiment); for Lmean 3h (mean cell length normalized to initial cell length): 3 h time-point, mean ± std. dev.; for Lmean 3h (mean cell length normalized to initial cell length) / increase in cell length on average before cell death: susceptible cells killed before dividing; for No. of non-dividing survivors at the end of the experiments: 10 M [sic] peptide, cells that did not divide and did not stain with propidium iodide, out of 305–323 initial cells; for cell division during peptide treatment: 3 h, measured per well; for survival fraction (fraction of wells hosting dividing cells after peptide treatment and overnight LB): continuous flow 3 h, then LB overnight (17–18 h), stationary phase cells, mean ± std. dev. over 2 biological repeats. An excerpt: The “mother-machine” system (Fig. 1A) enables the physical confinement of individual bacteria in well-controlled microenvironments, where they can be sequentially exposed to nutrients, drugs or viability indicators and the responses studied using time-lapse microscopy[28]–[30]. This technology has been used extensively to study bacterial-drug interactions, using a range of conventional small-molecule antibiotics such as ampicillin, gentamicin, ciprofloxacin (amongst others)[28],[30]–[33], phages[34] as well as novel protein pseudocapsid based antibacterials. Briefly E. coli BW25113 cells were cultured overnight in Lysogeny Broth (LB) at 37 °C to stationary phase and injected into the mother-machine microfluidic device (see “Experimental section” and[28],[29],[31],[32]). We waited for the cells to populate the “wells” of the chip (Fig. 1), following which the trapped cells were challenged with a continuous flow of peptide (10 μM) for 3 h, with images taken hourly. After 3 h of treatment, the cells were provided with fresh LB to study survivors. Post overnight (O/N) LB treatment, dead staining was performed with propidium iodide (PI). Dead cells either lysed or took up PI and appeared bright under fluorescence illumination (Fig. 1B). […] However, the cells that were dividing at the end of the experiment were unambiguously alive. Therefore, we chose to use only these dividing cells in our quantitative analysis discussed below.
Thus, reaching a critical peptide length leads to increased antibacterial activity with the bienA peptides. […] For bienK10 and bienK11, the survival fractions were 56 ± 26% (204 wells, 305 cells) and 31 ± 18% (215 wells, 311 cells) respectively (Fig. 2B), markedly different from the bienA10 and bienA11 results (Fig. 2A). Thus for these bienK peptides, while some individual cells were killed by the peptides, a large number of other clonal relatives survived the exact same conditions, similar to the example shown in Fig. 1. […] Our results reveal important phenotypic variants seemingly oblivious to the effects of these polypeptide antibiotics that are able to grow and divide even during treatment, while their clonal relatives perish. We also observed similar trends when quantifying the cellular division rates in response to the peptides (Fig. 2C,D). […] Again, as with the survival fractions, this peptide length dependence was not observed for the cellular division rates with the bienK series (Fig. 2D).
The Escherichia coli (BW25113) cultures were prepared in 150 mL of Lysogeny Broth (LB; 10 g/L tryptone, 5 g/L yeast extract and 10 g/L NaCl, Melford) with shaking at 200 rpm and incubation at 37 °C overnight (drug dosage during experiments was typically performed around 19–20 h after starting the culture). Prior to seeding in the microfluidic chip, the OD (optical density) of the culture was measured, the cells spun down at 3220g for 5 min and the supernatant filtered twice (0.22 µm, Millipore); this twice filtered supernatant is hereafter referred to as “spent LB”. All OD measurements were carried out at 600 nm. The cell pellet was resuspended in spent LB at an approximate OD of 75; this concentrated stationary phase culture was used when seeding the microfluidic chip with bacteria. Note, the OD of 75 is a theoretical value—we measure the OD of the original stationary phase culture, and calculate the volume of spent LB that the cell pellet (post centrifugation) is to be resuspended in to achieve this OD. In practical terms, one simply needs to concentrate the culture to optimise the efficiency of cells entering the wells of the mother-machine microfluidic device within a 30 min timeframe. We also note that unlike most traditional bulk experiments, we chose to study cells initially seeded in the microfluidic device in stationary phase, in line with previous studies using this platform[30]–[32],[34]. […]

For “RLLRLKLRLL [bienK10, ultrashort amphipathic helix peptide with binary encoding by arginine and leucine, lysine at the mutation position]”, the vesicle survival rate in assay [1] (5 μM peptide) turned out to be 40 ± 7%. In assay [1] (10 μM peptide), this sequence displayed a vesicle survival rate of 48 ± 10%. In assay [2], the “coefficient of variation (CV) in the cell lengths” value (from here on “coefficient of variation (CV)”) is given as 47%, the “Lmean 3h (mean cell length normalized to initial cell length)” value was 2.0 ± 0.9 and the “No. of non-dividing survivors at the end of the experiments” value (shortened to “No. of non-dividing survivors”) is 7.
For “RLLRLALRLLR [bienA11, ultrashort amphipathic helix peptide with binary encoding by arginine and leucine, alanine at the mutation position]”, in assay [1] (5 μM peptide), the vesicle survival rate is 1 ± 1%. Also, the vesicle survival rate entry in assay [1] (10 μM peptide) was “complete disruption of the entire vesicle population”. Besides, the vesicle survival rate in assay [1] (10 μM peptide, listed as A11) was found to be 0%. Further, the “mode of action from time distribution of single-GUV leakage events” value (from here on “mode of action”) in assay [1] is “unimodal “graded” mode of action”. For the same sequence, in assay [2], the “cell division during peptide treatment” value is “immediately and uniformly arrested cell division”; the “coefficient of variation (CV)” value turned out to be 16%; the “Lmean 3h (mean cell length normalized to initial cell length)” value is 1.2 ± 0.2; the “survival fraction (fraction of wells hosting dividing cells after peptide treatment and overnight LB)” value (shortened to “survival fraction”) was “less than 5%”. In assay [2], the “increase in cell length on average before cell death” value came out at 20% and the “No. of non-dividing survivors” value is given as 24. Moreover, in assay [2] (listed as A11), the “survival fraction” value turned out to be 0%.
In assay [1] (5 μM peptide), “RLLRLKLRLLR [bienK11, ultrashort amphipathic helix peptide with binary encoding by arginine and leucine, lysine at the mutation position]” yielded a vesicle survival rate of 70 ± 13%. In assay [1] (10 μM peptide), this sequence came in with a vesicle survival rate of 78 ± 4%. Besides, in assay [2], the “coefficient of variation (CV)” value was 48%; the “Lmean 3h (mean cell length normalized to initial cell length)” value worked out at 1.8 ± 0.9; the “survival fraction” value is listed as 31 ± 18%; the “No. of non-dividing survivors” value worked out at 1.
For “RLLRLALRL [bienA9, ultrashort amphipathic helix peptide with binary encoding by arginine and leucine, alanine at the mutation position]”, the vesicle survival rate in assay [1] (5 μM peptide) was 41 ± 3%. The vesicle survival rate in assay [1] (10 μM peptide) came to 19.9 ± 0.5%. The “mode of action” value in assay [1] was “bimodal all-or-none mode”. In assay [2], the “cell division during peptide treatment” value is on record as “did not”; the “coefficient of variation (CV)” value was found to be 17%; the “Lmean 3h (mean cell length normalized to initial cell length)” value is 0.9 ± 0.2; the “survival fraction” value is given as 65 ± 11%. For the same sequence, the “No. of non-dividing survivors” value in assay [2] was determined as 11. Moreover, the “survival fraction” value in assay [2] (listed as BienA9) was “over 50%”.
In assay [1] (5 μM peptide), “RLLRLALRLL [bienA10, ultrashort amphipathic helix peptide with binary encoding by arginine and leucine, alanine at the mutation position]” yielded a vesicle survival rate of 12 ± 2%. In addition, the vesicle survival rate entry in assay [1] (10 μM peptide) is “complete disruption of the entire vesicle population”. Also, in assay [1] (10 μM peptide, listed as A10), the vesicle survival rate is 0%. Also, in assay [1], the “mode of action” value was “unimodal “graded” mode of action”. For the same sequence, in assay [2], the “cell division during peptide treatment” value was “immediately and uniformly arrested cell division”; the “coefficient of variation (CV)” value is reported as 16%; the “Lmean 3h (mean cell length normalized to initial cell length)” value turned out to be 1.2 ± 0.2; the “survival fraction” value is reported as “less than 5%”. Besides, in assay [2], the “increase in cell length on average before cell death” value was determined as 20% and the “No. of non-dividing survivors” value was 6.
Take “RLLRLKLRL [bienK9, ultrashort amphipathic helix peptide with binary encoding by arginine and leucine, lysine at the mutation position]”: the vesicle survival rate in assay [1] (5 μM peptide) was 41 ± 20%. The vesicle survival rate in assay [1] (10 μM peptide) is on record as 47 ± 7%. Also, in assay [2], the “coefficient of variation (CV)” value was found to be 44%, the “Lmean 3h (mean cell length normalized to initial cell length)” value turned out to be 2.0 ± 0.9 and the “No. of non-dividing survivors” value stood at 13.
